According to patent US20020086814A1 (priority 2000, published 2002):

What was measured:
Vero cells [1] = type: cell-based
Vero cells [2] = type: cell-based; remark: listed apart in the source

In the case of chlorin e6 [free Ce6], the “LD50 of photodynamic cell killing, expressed in molar concentration of Ce6” value (Vero cells [1]) was 1.2 nmol/mL and the “Cell-associated Ce6-specific fluorescence” value (Vero cells [2]) was “no detectable Ce6-specific fluorescence”.
